The target in one experiment is Bcl-2 (Homo sapiens (Human), UniProt P10415). In words: Bcl-2 FP assay (fluorescence polarization competitive binding). The following applies: c-terminal 6×HIS tagged Bcl-2 (aa 1-204), FITC-Bim BH-3 peptide tracer. The source says: (§1) Bcl-xL and Bcl-2 FP binding affinity of compound(s) of Formulae (I), (I-a), (I-b), (I-c), (I-d) and/or (I-e) may be determined using a variety of known methods. One such assay is a sensitive and quantitative in vitro binding assay using fluorescence polarization (“FP”) described by Wang, J.-L.; Zhang, Z-J.; Choksi, S.; Sjam. S.; Lu, Z.; Croce, C. M.; Alnemri, E. S.; Komgold, R.; Huang, Z. Cell permeable Bcl-2 binding peptides: a chemical approach to apoptosis induction in tumor cells. Cancer Res. 2000, 60, 1498-1502).
(§2) Additionally, the binding affinity of compound(s) of Formulae (I), (I-a), (I-b), (I-c), (I-d) and/or (I-e) to Bcl-2 protein in vitro was determined by a competitive binding assay based on fluorescence polarization. For example, fluorescence polarization (“FP”) assays may be developed using a c-terminal 6×HIS tagged Bcl-2 (aa 1-204) and a C-terminal 6×HIS tagged Bcl-XL (aa 1-209). […] Dilutions of either Bcl-2 (1.3 nM) or Bcl-XL (0.8 nM) may be added to serial dilutions of antagonist and incubated for one hour prior to the addition of 2 nM of fluorescent peptide tracer (Anaspec, Fremont, Calif.) in the assay buffer. Final assay buffer conditions may be 20 mM HEPES, pH 7.5, 1 mM DTT, 0.005% Tween-20 and 50 mM NaCl. Samples may be read after 20-minute incubation. Fluorescence polarization values may be plotted as a function of the antagonist concentration.
In general terms: In fluorescence polarisation assays a small probe gives low polarisation when free and higher when bound to something large.

Another experiment concerns the target Bcl-XL (Homo sapiens (Human), UniProt Q07817). In words: Bcl-XL FP assay (fluorescence polarization competitive binding). The following applies: C-terminal 6×HIS tagged Bcl-XL (aa 1-209), FITC-Bim BH-3 peptide tracer.
Text: as §1, §2

SMILES strings stand for the structures.

Chain of Bcl-XL (Q07817 1-209): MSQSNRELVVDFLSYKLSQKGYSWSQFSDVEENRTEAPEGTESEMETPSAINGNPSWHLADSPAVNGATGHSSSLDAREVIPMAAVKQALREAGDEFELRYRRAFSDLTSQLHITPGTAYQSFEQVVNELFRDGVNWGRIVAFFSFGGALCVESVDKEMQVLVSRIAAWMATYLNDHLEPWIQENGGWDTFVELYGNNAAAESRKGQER
Chain of Bcl-2 (P10415 1-204): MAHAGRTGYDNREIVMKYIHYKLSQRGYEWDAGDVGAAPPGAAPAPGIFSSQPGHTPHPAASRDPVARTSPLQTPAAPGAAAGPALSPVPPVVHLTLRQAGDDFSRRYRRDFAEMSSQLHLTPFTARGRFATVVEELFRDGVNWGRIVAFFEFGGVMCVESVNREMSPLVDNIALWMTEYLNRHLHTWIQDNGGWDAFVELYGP

For the compound `O=C(NS(=O)(=O)c1ccc(N[C@H](CCN2CCN(C[C@H](O)CF)CC2)CSc2ccccc2)c(S(=O)(=O)C(F)(F)F)c1)c1ccc(N2CCC([C@@H](O)c3ccccc3-c3ccc(Cl)cc3)CC2)cc1` (single isomer, unassigned) [Example 6], the IC50 on Bcl-2 came out at 1 nM; on Bcl-XL, 2 nM.

As usually defined, the IC50 is the concentration at which inhibition is half-maximal. Read a low IC50 as greater potency.

(Values after US9018381B2, “Chemical compounds” (AstraZeneca AB, priority 2010, dated 2015).)
